Measurements published in ChEMBL document CHEMBL1201862, “PubChem BioAssay data set” (2004).
Active and inactive are the calls of the source.

Columns and labels:
[1] = molecular target: T1, Apoptotic protease-activating factor 1 (Homo sapiens, UniProt O14727); type: functional
T1 sequence (O14727 whole entry): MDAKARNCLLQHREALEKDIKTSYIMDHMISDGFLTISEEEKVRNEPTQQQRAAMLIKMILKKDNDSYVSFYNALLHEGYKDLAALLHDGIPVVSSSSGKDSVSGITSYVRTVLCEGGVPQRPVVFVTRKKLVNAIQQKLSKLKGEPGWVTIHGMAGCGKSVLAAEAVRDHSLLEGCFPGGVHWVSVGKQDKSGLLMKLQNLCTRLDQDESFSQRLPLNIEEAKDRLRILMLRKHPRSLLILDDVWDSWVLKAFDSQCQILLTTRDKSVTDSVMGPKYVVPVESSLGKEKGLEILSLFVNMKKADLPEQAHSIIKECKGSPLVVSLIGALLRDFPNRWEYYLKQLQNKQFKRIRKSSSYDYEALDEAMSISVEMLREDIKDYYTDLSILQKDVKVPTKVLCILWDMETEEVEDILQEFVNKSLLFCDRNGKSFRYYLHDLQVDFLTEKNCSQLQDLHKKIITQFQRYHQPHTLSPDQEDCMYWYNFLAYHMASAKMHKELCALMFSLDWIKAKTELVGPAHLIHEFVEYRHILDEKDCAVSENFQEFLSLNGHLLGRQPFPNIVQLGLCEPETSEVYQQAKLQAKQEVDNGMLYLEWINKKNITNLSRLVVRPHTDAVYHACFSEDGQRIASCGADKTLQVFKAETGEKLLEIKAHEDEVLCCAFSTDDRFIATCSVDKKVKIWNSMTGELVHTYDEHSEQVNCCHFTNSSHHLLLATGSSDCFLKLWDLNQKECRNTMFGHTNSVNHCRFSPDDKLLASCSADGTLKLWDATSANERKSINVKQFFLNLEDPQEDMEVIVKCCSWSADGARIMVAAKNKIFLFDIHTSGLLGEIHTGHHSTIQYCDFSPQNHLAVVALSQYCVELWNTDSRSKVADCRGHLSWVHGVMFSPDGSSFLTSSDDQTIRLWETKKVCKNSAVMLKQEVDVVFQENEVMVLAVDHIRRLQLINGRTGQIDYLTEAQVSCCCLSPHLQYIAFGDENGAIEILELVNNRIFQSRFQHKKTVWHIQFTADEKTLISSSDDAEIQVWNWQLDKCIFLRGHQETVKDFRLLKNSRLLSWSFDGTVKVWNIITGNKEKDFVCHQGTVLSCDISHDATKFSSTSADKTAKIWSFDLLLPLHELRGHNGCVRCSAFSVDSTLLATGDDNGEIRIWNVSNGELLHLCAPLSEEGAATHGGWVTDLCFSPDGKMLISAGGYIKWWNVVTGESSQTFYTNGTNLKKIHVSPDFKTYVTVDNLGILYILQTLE

[2] = molecular target: T2, Short transient receptor potential channel 4 (Mus musculus, UniProt Q9QUQ5); assay: mouse TRPC4 channel activators, dose response, cell-based, HEK293 TRPC4/mu-opioid, Fluo-4 calcium (AID 434937); type: functional
T2 sequence (Q9QUQ5 whole entry): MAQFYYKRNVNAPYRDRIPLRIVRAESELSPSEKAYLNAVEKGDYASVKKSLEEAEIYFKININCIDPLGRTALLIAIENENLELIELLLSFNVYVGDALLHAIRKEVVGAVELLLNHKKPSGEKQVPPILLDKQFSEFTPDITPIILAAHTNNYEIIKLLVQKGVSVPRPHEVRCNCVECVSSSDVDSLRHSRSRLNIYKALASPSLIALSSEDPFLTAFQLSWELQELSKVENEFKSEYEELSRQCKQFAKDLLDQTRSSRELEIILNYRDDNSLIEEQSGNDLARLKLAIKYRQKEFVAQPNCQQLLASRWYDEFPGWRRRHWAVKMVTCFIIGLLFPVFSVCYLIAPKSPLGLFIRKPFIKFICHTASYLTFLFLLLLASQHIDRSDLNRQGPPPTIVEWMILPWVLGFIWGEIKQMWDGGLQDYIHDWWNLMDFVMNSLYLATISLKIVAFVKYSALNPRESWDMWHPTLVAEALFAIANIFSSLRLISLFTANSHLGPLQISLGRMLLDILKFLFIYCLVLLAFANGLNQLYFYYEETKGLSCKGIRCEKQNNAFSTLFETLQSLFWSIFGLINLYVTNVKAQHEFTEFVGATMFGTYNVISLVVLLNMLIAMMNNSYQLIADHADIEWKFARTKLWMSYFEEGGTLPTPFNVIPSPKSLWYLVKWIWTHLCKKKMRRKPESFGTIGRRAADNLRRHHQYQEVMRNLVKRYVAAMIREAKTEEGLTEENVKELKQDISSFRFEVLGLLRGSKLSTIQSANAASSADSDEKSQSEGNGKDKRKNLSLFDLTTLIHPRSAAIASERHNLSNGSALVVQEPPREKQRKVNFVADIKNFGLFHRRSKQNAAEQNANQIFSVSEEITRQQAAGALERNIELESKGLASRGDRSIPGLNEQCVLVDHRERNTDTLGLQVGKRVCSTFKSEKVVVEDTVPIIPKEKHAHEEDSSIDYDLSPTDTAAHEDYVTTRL

[3] = molecular target: T3, Long-chain-fatty-acid--AMP ligase FadD28 (Mycobacterium tuberculosis, UniProt P9WQ59); assay: Fluorescence polarization aasay to screen for inhibitors that compete for the binding of FadD28 to a bisubstrate Measured in Biochemical System Using Plate Reader - 2147-01_Inhibitor_Dose_CherryPick_Activity.; type: functional, Mycobacterium tuberculosis H37Rv
T3 sequence (P9WQ59 whole entry): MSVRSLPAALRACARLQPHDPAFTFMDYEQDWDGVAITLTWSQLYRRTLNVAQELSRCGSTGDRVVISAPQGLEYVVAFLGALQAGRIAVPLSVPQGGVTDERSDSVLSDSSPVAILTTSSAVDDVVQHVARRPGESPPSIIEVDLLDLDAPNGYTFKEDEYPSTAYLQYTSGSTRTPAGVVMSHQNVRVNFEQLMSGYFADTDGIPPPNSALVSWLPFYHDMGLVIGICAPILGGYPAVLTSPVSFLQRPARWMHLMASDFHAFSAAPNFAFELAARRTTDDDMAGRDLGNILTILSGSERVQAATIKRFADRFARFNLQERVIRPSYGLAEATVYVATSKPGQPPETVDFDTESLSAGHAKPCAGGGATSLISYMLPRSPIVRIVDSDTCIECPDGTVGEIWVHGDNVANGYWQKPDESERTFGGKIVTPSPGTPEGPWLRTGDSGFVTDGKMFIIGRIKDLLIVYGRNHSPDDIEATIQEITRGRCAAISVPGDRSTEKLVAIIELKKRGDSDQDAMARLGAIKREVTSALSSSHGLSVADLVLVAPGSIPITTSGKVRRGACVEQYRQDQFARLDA

[4] = molecular target: T4, Sentrin-specific protease 6 (Homo sapiens, UniProt Q9GZR1); type: functional;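 further: Luminescence-based dose-response confirmatory assay of SENP6 inhibition, following up an ultra-high-throughput screen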
T4 sequence (Q9GZR1 whole entry): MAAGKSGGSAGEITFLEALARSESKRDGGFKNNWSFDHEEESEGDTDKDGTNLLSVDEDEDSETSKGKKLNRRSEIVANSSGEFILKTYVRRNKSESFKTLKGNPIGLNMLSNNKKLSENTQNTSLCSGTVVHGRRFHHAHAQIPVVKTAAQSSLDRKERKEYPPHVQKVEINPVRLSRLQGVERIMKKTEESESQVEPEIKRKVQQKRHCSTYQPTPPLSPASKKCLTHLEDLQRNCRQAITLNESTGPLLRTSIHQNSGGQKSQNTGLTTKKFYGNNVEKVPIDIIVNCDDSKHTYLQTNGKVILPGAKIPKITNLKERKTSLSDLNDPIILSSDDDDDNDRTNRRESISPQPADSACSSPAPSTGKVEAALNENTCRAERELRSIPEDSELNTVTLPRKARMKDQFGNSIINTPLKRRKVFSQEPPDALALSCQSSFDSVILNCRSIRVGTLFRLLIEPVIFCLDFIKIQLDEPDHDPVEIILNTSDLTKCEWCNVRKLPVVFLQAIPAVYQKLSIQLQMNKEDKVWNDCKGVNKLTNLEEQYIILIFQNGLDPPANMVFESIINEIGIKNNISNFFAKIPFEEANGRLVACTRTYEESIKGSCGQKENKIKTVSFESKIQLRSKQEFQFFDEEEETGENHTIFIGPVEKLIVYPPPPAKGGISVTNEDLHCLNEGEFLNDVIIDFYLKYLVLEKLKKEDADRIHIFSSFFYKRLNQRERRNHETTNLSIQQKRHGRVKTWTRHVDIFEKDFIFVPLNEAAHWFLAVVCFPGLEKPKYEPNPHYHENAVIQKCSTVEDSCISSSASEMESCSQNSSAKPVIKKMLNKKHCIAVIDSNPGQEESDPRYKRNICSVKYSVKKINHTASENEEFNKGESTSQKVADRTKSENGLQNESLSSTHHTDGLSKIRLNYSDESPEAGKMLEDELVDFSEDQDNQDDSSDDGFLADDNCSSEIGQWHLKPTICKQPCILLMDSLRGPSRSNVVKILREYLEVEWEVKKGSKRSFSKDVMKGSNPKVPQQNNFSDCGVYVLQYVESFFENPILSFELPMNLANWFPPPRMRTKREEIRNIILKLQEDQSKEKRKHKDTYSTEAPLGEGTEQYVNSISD

[5] = molecular target: T5, Sentrin-specific protease 7 (Homo sapiens, UniProt Q9BQF6); type: functional;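 further: Luminescence-based dose-response confirmation of ultra-high-throughput screening hits, measuring inhibition of SENP7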
T5 sequence (Q9BQF6 whole entry): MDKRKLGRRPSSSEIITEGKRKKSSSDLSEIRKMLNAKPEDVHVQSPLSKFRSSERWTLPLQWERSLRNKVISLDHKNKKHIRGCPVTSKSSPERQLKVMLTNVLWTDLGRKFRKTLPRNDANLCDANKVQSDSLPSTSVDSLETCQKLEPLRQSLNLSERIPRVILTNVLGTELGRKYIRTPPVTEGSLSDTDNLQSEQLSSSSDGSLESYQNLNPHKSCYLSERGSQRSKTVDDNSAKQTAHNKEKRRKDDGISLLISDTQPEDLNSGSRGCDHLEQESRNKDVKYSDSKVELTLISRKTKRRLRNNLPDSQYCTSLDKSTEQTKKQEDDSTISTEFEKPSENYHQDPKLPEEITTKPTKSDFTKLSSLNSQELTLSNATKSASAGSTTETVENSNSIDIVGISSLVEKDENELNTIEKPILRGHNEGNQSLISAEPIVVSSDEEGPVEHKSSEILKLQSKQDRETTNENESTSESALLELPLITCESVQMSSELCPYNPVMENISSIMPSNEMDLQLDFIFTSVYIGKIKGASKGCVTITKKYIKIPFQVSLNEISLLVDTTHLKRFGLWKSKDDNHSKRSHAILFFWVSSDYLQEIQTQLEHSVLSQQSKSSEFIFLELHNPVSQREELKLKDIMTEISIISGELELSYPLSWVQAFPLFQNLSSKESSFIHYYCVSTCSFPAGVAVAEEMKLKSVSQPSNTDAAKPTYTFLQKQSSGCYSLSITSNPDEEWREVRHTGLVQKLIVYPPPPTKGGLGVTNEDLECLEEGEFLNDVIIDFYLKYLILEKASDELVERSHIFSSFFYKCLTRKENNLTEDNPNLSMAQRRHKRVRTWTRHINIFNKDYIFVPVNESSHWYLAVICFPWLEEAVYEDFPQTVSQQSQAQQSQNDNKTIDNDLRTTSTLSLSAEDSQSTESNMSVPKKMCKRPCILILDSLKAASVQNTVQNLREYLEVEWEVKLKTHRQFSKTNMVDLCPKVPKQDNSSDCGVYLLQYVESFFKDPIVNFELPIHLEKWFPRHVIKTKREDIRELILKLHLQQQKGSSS

[6] = molecular target: T6, Sentrin-specific protease 8 (Homo sapiens, UniProt Q96LD8); type: functional;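 further: luminescence read-out of SENP8 inhibition, dose-response confirmation following an ultra-high-throughput screen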
T6 sequence (Q96LD8 whole entry): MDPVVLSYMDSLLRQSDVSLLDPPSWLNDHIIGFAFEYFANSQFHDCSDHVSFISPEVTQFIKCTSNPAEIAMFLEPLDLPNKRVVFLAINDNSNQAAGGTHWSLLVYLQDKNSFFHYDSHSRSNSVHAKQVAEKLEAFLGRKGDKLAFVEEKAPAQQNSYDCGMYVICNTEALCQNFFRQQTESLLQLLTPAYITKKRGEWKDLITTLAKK

[7] = Luminescence Cell-Based Dose Retest to Confirm Inhibitors of Cancer Stem Cells. [Related pubchem assays (depositor defined):AID2717, AID2721]; type: functional; details: Homo sapiens
[8] = molecular target: Ras and Rab interactor 1/Tyrosine-protein kinase ABL1 (Homo sapiens, UniProt P00519+Q13671); type: functional;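 further: biochemical TR-FRET dose-response test measuring inhibition of binding between Rin1 and Abl proteins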
Chain of Ras and Rab interactor 1/Tyrosine-protein kinase ABL1 (P00519 whole entry): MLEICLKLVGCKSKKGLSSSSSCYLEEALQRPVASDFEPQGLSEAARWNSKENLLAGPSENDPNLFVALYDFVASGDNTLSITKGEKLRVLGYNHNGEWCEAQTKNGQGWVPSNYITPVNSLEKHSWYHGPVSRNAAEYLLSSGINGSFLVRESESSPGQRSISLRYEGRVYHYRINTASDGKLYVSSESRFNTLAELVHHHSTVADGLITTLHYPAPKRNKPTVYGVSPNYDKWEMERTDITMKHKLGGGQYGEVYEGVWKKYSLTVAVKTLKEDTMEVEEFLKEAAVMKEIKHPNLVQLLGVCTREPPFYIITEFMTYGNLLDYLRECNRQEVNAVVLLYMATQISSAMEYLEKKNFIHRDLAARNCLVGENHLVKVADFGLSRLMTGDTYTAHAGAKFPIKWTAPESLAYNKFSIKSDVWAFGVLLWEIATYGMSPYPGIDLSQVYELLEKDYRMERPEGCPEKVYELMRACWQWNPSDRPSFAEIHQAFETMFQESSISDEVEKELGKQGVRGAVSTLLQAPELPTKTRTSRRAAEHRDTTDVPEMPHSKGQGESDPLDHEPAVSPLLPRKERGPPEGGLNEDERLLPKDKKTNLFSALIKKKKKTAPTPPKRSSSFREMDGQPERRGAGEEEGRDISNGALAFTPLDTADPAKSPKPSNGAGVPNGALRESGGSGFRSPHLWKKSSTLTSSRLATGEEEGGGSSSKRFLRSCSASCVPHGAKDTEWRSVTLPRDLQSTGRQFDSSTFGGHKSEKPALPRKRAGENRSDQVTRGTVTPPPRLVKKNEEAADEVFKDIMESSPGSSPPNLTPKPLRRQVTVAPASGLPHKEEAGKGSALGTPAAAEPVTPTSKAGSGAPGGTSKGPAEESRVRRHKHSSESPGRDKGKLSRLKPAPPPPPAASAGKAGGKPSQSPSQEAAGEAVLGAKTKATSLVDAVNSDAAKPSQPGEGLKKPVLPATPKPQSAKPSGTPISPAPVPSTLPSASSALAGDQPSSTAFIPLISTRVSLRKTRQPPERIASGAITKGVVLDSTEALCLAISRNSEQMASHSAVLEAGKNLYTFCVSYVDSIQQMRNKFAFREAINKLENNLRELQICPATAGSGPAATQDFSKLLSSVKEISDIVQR
Chain of Ras and Rab interactor 1/Tyrosine-protein kinase ABL1 (Q13671 whole entry): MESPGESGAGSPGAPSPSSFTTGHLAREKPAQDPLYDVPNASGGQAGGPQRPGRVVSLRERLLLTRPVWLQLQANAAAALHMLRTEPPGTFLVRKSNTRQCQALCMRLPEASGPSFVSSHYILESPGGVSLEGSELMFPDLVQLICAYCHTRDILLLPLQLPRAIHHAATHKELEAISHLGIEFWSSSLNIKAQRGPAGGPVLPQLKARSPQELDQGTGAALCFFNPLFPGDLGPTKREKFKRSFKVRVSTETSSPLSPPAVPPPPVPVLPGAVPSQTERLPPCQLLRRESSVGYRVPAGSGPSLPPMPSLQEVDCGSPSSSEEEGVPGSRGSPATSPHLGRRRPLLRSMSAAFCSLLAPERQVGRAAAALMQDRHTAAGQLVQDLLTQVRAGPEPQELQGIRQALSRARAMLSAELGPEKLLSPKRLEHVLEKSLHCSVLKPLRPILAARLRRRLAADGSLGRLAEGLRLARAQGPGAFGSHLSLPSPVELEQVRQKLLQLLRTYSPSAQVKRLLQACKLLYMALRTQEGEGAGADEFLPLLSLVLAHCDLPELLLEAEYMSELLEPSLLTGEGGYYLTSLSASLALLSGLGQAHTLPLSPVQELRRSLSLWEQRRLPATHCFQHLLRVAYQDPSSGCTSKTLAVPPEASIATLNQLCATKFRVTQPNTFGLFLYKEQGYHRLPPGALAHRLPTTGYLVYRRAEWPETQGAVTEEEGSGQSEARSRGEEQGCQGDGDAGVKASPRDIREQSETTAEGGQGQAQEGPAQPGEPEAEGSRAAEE

## CC(C)(C)C(=O)[C@@H]1[C@@H]2C(=O)N(C3CCCCC3)C(=O)[C@@H]2[C@H]2c3ccccc3C=CN12
[1]
  IC50: 10.5 µM (active)

## CN(C)C(CNC(=O)Cc1cccc(C(F)(F)F)c1)c1ccco1 (centres undefined)
[2]
  EC50: 0.335 µM (active)

## O=C(CC(=O)Nc1ccccc1[N+](=O)[O-])Nc1ccccc1[N+](=O)[O-]
[3]
  AC50: 32 µM (inactive)

## COc1cc2ccccc2cc1C(=O)Nc1ccccc1Cl
[4]
  IC50: 10.2 µM (active)
[5]
  IC50: 8.41 µM (active)
[6]
  IC50: 17.2 µM (active)
[7]
  AC50: 4.58 µM (active)

## CC1CCN(CCCNS(=O)(=O)c2cc(Br)cc3c2N(C(=O)C2CC2)CC3)CC1
[2]
  EC50: 0.299 µM (active)

## O=C(CCn1c2c(c3ccccc31)CCCC2)NNC(=O)c1ccc([N+](=O)[O-])cc1
[1]
  IC50: 1.8 µM (active)

## CCCN(CC(=O)Nc1ccccc1C)C(=O)c1sc2ccccc2c1Cl
[1]
  IC50: > 100 µM (inactive)

## COc1cccc(NC(=O)Nc2ccc3c(c2)CCC3)c1
[4]
  IC50: > 100 µM (inactive)
[5]
  IC50: 4.28 µM (active)
[6]
  IC50: > 100 µM (inactive)

## CCOC(=O)C1(CCc2ccccc2)CCN(Cc2ccc(OC)cc2)CC1
[2]
  EC50: 0.267 µM (active)

## Nc1nc(O)cc(NC2CCCC2)n1
[8]
  IC50: 12.4 µM (inactive)

## COc1ccc(CCC(=O)Nc2c(-c3ccc(N(C)C)cc3)n[nH]c2O)cc1
[8]
  IC50: > 73.5 µM (inactive)

## CN(C(=O)c1ccc(NC(=O)Cc2cccc(NC(=O)C3CCN(C(=O)C4CCCC4)CC3)c2)cc1)C1CC1
[8]
  IC50: 21.2 µM (inactive)

## Cc1nc(N/N=C/c2ccc(O)cc2O)cc(N2CCOCC2)n1
[8]
  IC50: > 2.72 µM (active)

## C/C(=N\Nc1ccc(Cl)c(C(=O)O)c1)c1ccc(Br)s1
[3]
  AC50: > 100 µM (inactive)
